Experimental findings from PubChem BioAssay AID248 (DTP/NCI, 2004) are described below.

The test system of this assay is L1210 leukemia ip in BDF1 mice, survival T/C. Kind of assay: NCI In Vivo Anticancer Drug Screen. Data for tumor model L1210 Leukemia (intraperitoneal) in B6D2F1 (BDF1) mice. The settings on record: endpoint: mean survival time, higher = longer survival. In short, it runs like this: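 In this screen, tumor-bearing mice given compound are compared to those given vehicle, and their survival values are reported as a treated-to-control quotient.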

Where [1] appears, read: dose: 80.0 mg/kg/injection, schedule: Q04DX003 (ip), vehicle: saline.
The mark [2] stands for this setting: dose: 100.0 mg/kg/injection, schedule: Q04DX003 (ip), vehicle: saline.
Setting [3] is: dose: 100.0 mg/kg/injection, schedule: Q01DX001 (ip), vehicle: carboxymethylcellulose (CMC).
Where [4] appears, read: dose: 200.0 mg/kg/injection, schedule: Q01DX001 (ip), vehicle: carboxymethylcellulose (CMC).
[5] abbreviates: dose: 100.0 mg/kg/injection, schedule: Q01DX009 (ip), vehicle: Klucel (hydroxypropylcellulose) (HPC).
[6] abbreviates: dose: 200.0 mg/kg/injection, schedule: Q01DX009 (ip), vehicle: Klucel (hydroxypropylcellulose) (HPC).
Setting [7] is: dose: 400.0 mg/kg/injection, schedule: Q01DX009 (ip), vehicle: Klucel (hydroxypropylcellulose) (HPC).
Setting [8] is: dose: 100.0 mg/kg/injection, schedule: Q01DX009 (ip), vehicle: saline.
Setting [9] is: dose: 200.0 mg/kg/injection, schedule: Q01DX009 (ip), vehicle: saline.
Where [10] appears, read: dose: 200.0 mg/kg/injection, schedule: Q04DX003 (ip), vehicle: saline.
The mark [11] stands for this setting: dose: 400.0 mg/kg/injection, schedule: Q01DX009 (ip), vehicle: saline.
Setting [12] is: dose: 400.0 mg/kg/injection, schedule: Q04DX003 (ip), vehicle: saline.
Setting [13] is: dose: 100.0 mg/kg/injection, schedule: Q01DX001 (ip), vehicle: saline.
Where [14] appears, read: dose: 200.0 mg/kg/injection, schedule: Q01DX001 (ip), vehicle: saline.
The mark [15] stands for this setting: dose: 400.0 mg/kg/injection, schedule: Q01DX001 (ip), vehicle: saline.
The mark [16] stands for this setting: dose: 100.0 mg/kg/injection, schedule: Q01DX009 (ip), vehicle: saline with Tween-80.
[17] abbreviates: dose: 200.0 mg/kg/injection, schedule: Q01DX009 (ip), vehicle: saline with Tween-80.
[18] abbreviates: dose: 100.0 mg/kg/injection, schedule: Q04DX003 (ip), vehicle: Klucel (hydroxypropylcellulose) (HPC).
Setting [19] is: dose: 200.0 mg/kg/injection, schedule: Q04DX003 (ip), vehicle: Klucel (hydroxypropylcellulose) (HPC).
[20] abbreviates: dose: 400.0 mg/kg/injection, schedule: Q04DX003 (ip), vehicle: Klucel (hydroxypropylcellulose) (HPC).
[21] abbreviates: dose: 25.0 mg/kg/injection, schedule: Q01DX009 (ip), vehicle: Klucel (hydroxypropylcellulose) (HPC).
[22] abbreviates: dose: 50.0 mg/kg/injection, schedule: Q01DX009 (ip), vehicle: Klucel (hydroxypropylcellulose) (HPC).

“And” between values parts separate entries of the source, which are not always exact repeats. Identical values can stand only once. Inconclusive results and toxic doses are left out.

For the compound `O=C[C@@H](CO)O[C@H](C=O)c1c[nH]c(=O)[nH]c1=O`, the T/C was 213 % of control (dose: 66.0 mg/kg/injection, schedule: Q03DX003 (ip), vehicle: saline); 168 % of control under setting [1]; 209 % of control under setting [2]; 252 % of control (dose: 120.0 mg/kg/injection, schedule: Q04DX003 (ip), vehicle: saline); 204 % of control (dose: 140.0 mg/kg/injection, schedule: Q04DX003 (ip), vehicle: saline); 217 % of control (dose: 150.0 mg/kg/injection, schedule: Q03DX003 (ip), vehicle: saline).

For the compound `O=c1[nH]c(=S)[nH]c(=S)[nH]1`, the T/C (dose: 100.0 mg/kg/injection, schedule: Q01DX Z (ip), vehicle: methylcellulose (MC)) was 97 % of control and the T/C (dose: 200.0 mg/kg/injection, schedule: Q01DX Z (ip), vehicle: methylcellulose (MC)) was 104 % of control.

On to `COC1C(COC(=O)c2ccccc2)OC2OC(C)(C)OC21` (stereo unspecified), for which the T/C runs as follows: (dose: 50.0 mg/kg/injection, schedule: Q01DX001 (ip), vehicle: carboxymethylcellulose (CMC)) 98 % of control; under setting [3], 98 % of control; under setting [4], 93 % of control; (dose: 400.0 mg/kg/injection, schedule: Q01DX001 (ip), vehicle: carboxymethylcellulose (CMC)) 109 % of control.

Consider `Cc1ccc(Cl)c(NC(=O)Nc2ccccc2F)c1`, for which the T/C is 97 % of control under setting [5], 100 % of control under setting [6] and 103 % of control under setting [7].

Take `NC(=O)C(N)=O`: the T/C is 93 % of control under setting [8]; 106 % of control under setting [2]; 103 % of control under setting [9]; 101 % of control under setting [10]; 101 % of control under setting [11]; 97 % of control under setting [12].

`C/C(=N/N(C)C)c1ccc(C)cc1`: the T/C under setting [13] is 93 % of control, the T/C under setting [8] is 91 % of control, the T/C under setting [14] was 97 % of control and the T/C under setting [15] was 105 % of control.

With `Cc1cccc(C(=O)OCc2ccccc2CN2CCCC2)c1`, the T/C is, setting by setting: (dose: 100.0 mg/kg/injection, schedule: Q04DX002 (ip), vehicle: saline) 93 % of control; (dose: 200.0 mg/kg/injection, schedule: Q04DX002 (ip), vehicle: saline) 104 % of control.

As for `O=C(c1ccccc1)c1cn(C2CCCCC2)c(-c2ccccc2)c1NC1CCCCC1`, the T/C is 93 % of control under setting [16]; 93 % of control under setting [17]; 102 % of control (dose: 400.0 mg/kg/injection, schedule: Q01DX009 (ip), vehicle: saline with Tween-80).

For `COC1Nc2cc3ccccc3cc2-c2ccccc21` (stereo unspecified), the T/C by setting is: under setting [3], 97 % of control; under setting [4], 97 % of control.

Take `CCCC(C1=CC(C)(C)c2ccccc2C1=O)c1ccc(Br)cc1` (stereo unspecified): the T/C reads like this: under setting [5], 108 % of control; under setting [18], 110 % of control; under setting [6], 106 % of control; under setting [19], 113 % of control; under setting [7], 103 % of control; under setting [20], 106 % of control.

As for `CCC(Cl)COP(=O)(CC(Cl)CC)OC(C)P(=O)(OCC(Cl)CC)OCC(Cl)CC` (stereo unspecified), the T/C is 101 % of control (dose: 100.0 mg/kg/injection, schedule: Q01DX001 (ip), vehicle: Klucel (hydroxypropylcellulose) (HPC)); 121 % of control (dose: 200.0 mg/kg/injection, schedule: Q01DX001 (ip), vehicle: Klucel (hydroxypropylcellulose) (HPC)); 97 % of control (dose: 400.0 mg/kg/injection, schedule: Q01DX001 (ip), vehicle: Klucel (hydroxypropylcellulose) (HPC)).

`O=C1Nc2cccc3cc([N+](=O)[O-])cc1c23`: the T/C was 101 % of control under setting [13], 93 % of control under setting [14] and 103 % of control under setting [15].

Consider `O=C(Nc1cccc(F)c1)Nc1ccc([N+](=O)[O-])cc1Cl`, for which the T/C is, setting by setting: under setting [5], 101 % of control; under setting [6], 100 % of control; under setting [7], 103 % of control.

Turning to `O=C(N/N=C/NN/C=N/NC(=O)c1ccncc1)c1ccncc1`, the T/C is, setting by setting: (dose: 75.0 mg/kg/injection, schedule: Q01DX001 (ip), vehicle: saline) 101 % of control; (dose: 150.0 mg/kg/injection, schedule: Q01DX001 (ip), vehicle: saline) 100 % of control.

Take `CCOC(=O)c1cn(C2OC(COC(C)=O)C(OC(C)=O)C2OC(C)=O)c2nc(SC)nc(NC(C)=O)c2c1=O` (stereo unspecified): the T/C is, setting by setting: (dose: 100.0 mg/kg/injection, schedule: Q01DX005 (ip), vehicle: saline) 97 % of control; (dose: 200.0 mg/kg/injection, schedule: Q01DX005 (ip), vehicle: saline) 91 % of control.

As for `CC(=N)/C(C(=O)NC1CCCCC1)=C(/C)O`, the T/C was 101 % of control under setting [8]; 104 % of control under setting [2]; 103 % of control under setting [9]; 109 % of control under setting [10]; 93 % of control under setting [11]; 96 % of control under setting [12].

Take `NC(N)=Nc1ccc(/C=C2\C=Cc3ccccc32)cc1`: the T/C under setting [4] was 101 % of control.

In the case of `O=C(O)COc1ccc(Cl)cc1`, the T/C by setting is: under setting [18], 97 % of control; under setting [19], 100 % of control; under setting [20], 100 % of control.

On to `CN(C)C(=C1C=CC=C1)N(C)C`, for which the T/C was 101 % of control (dose: 20.0 mg/kg/injection, schedule: Q04DX003 (ip), vehicle: saline); 96 % of control (dose: 40.0 mg/kg/injection, schedule: Q04DX003 (ip), vehicle: saline); 92 % of control under setting [1].

In the case of `O=C1CCCc2ccc([N+](=O)[O-])cc21`, the T/C under setting [2] was 96 % of control and the T/C under setting [10] was 87 % of control.

As for `CC(NC(=O)OCc1ccccc1)C(=O)NCCC(N)=O` (stereo unspecified), the T/C runs as follows: under setting [16], 91 % of control; under setting [17], 88 % of control.

`CCCCN(C)N=Nc1c[nH]c(=O)[nH]c1=O`: the T/C (dose: 75.0 mg/kg/injection, schedule: Q01DX001 (ip), vehicle: other) is 95 % of control.

In the case of `CCCCN(CCCC)CP(=O)(CN(CCCC)CCCC)CN(CCCC)CCCC`, the T/C (dose: 100.0 mg/kg/injection, schedule: Q04DX003 (ip), vehicle: saline with Tween-80) is 93 % of control; the T/C (dose: 200.0 mg/kg/injection, schedule: Q04DX003 (ip), vehicle: saline with Tween-80) was 96 % of control; the T/C (dose: 400.0 mg/kg/injection, schedule: Q04DX003 (ip), vehicle: saline with Tween-80) is 111 % of control.

With `Cc1cccc(CN=C(N)CSS(=O)(=O)O)n1`, the T/C by setting is: under setting [21], 104 % of control; (dose: 25.0 mg/kg/injection, schedule: Q04DX002 (ip), vehicle: Klucel (hydroxypropylcellulose) (HPC)) 92 % of control; under setting [22], 96 % of control; (dose: 50.0 mg/kg/injection, schedule: Q04DX002 (ip), vehicle: Klucel (hydroxypropylcellulose) (HPC)) 103 % of control; (dose: 100.0 mg/kg/injection, schedule: Q04DX002 (ip), vehicle: Klucel (hydroxypropylcellulose) (HPC)) 101 % of control and 88 % of control.

`COc1ccc(OC(=O)Nc2cc([N+](=O)[O-])ccc2OC)cc1`: the T/C was 89 % of control under setting [21], 96 % of control under setting [22], 88 % of control under setting [5] and 88 % of control under setting [6].

In the case of `ClC(c1ccccc1)c1nc2ccccc2[nH]1` (stereo unspecified), the T/C was 94 % of control under setting [13] and 96 % of control under setting [14].

For `c1ccc(-c2cc(-c3ccccc3)c3c([o+]2)CCCCCCCCCCCC3)cc1`, the T/C (dose: 50.0 mg/kg/injection, schedule: Q01DX009 (ip), vehicle: saline with Tween-80) was 108 % of control; the T/C under setting [16] is 108 % of control; the T/C under setting [17] is 97 % of control.
